The IC50 is the midpoint of a concentration-inhibition curve.

A value given as a limit tells only on which side of the number the result lay.

The experiment concerns Plasmodium falciparum. Description: Antiplasmodial activity against Plasmodium falciparum F32-Tanzania after 48 hrs.
Take `C=Cc1cccc2c3cc4c(cc3c(=O)n(CC)c12)OCO4`: the IC50 is > 100 µM.

Compound `C=Cc1cccc2c1N(C)Cc1cc(OC(=O)CCCCCCCCCCC)c(OC(=O)CCCCCCCCCCC)cc1-2` gave an IC50 of 47 µM.

`CC(=O)Oc1cc2c(cc1OC(C)=O)[C@@H]1[C@H](O)[C@@H](OC(C)=O)C=C3CCN(C2)[C@H]31` returned an IC50 of 8.4 µM.

As to `CC(=O)O[C@H]1[C@H]2c3cc4c(cc3C(=O)N3CCC(=C[C@@H]1OC(C)=O)[C@H]23)OCO4`, the IC50 is > 100 µM.

Consider `C=Cc1cccc2c1N(C)Cc1cc(OC(C)=O)c(OC(C)=O)cc1-2`, for which the IC50 worked out at 0.9 µM.

Regarding `C=Cc1cccc2c1N(C)Cc1cc(OC)c(OC)cc1-2`, half-maximal inhibition (IC50) was put at 12.4 µM.

Regarding `CC(=O)Oc1cc2c3c(c1)c1cc4c(cc1c(=O)n3CC2)OCO4`, 9.2 µM corresponded to half-maximal inhibition (IC50).

`C=Cc1cccc2c1N(CCCC)Cc1cc(OC(C)=O)c(OC(C)=O)cc1-2`: the IC50 worked out at 0.8 µM.

As for `CC(=O)O[C@@H]1[C@@H](OC(C)=O)[C@H](O)[C@@]2(O)CCN3C(=O)c4cc5c(cc4[C@H]1[C@H]32)OCO5`, the IC50 is > 100 µM.

In the case of `CC(=O)O[C@H]1[C@H]2c3cc4c(cc3C(=O)N3CCC(=C[C@@H]1O)[C@H]23)OCO4`, the IC50 is > 100 µM.

In the case of `C=Cc1cccc2c3cc4c(cc3c(=O)n(CCCC)c12)OCO4`, the 50% inhibitory concentration (IC50) is > 100 µM.

`CCC(C)C(=O)O[C@H]1[C@H]2c3cc4c(cc3CN3CCC(=C[C@@H]1OC(=O)C(C)CC)[C@H]23)OCO4` (some centres not stated) returned an IC50 of 0.6 µM.

In turn, `C=Cc1cccc2c1N(CCCCCCCCCCC)Cc1cc3c(cc1-2)OCO3` returned an IC50 of 7.4 µM.

`C=Cc1cccc2c1N(C)Cc1cc(O)c(O)cc1-2` showed an IC50 of 1.1 µM.

On to `C=Cc1cccc2c1N(CCCC)Cc1cc(O)c(O)cc1-2`, for which the IC50 was > 100 µM.

As for `C=Cc1cccc2c3cc4c(cc3c(=O)n(C)c12)OCO4`, the IC50 was > 100 µM.

Turning to `C=Cc1cccc2c1N(CCCC)Cc1cc3c(cc1-2)OCO3`, half-maximal inhibition (IC50) was put at 9.7 µM.

For the compound `CCc1cccc2c1N(C)Cc1cc3c(cc1-2)OCO3`, the IC50 was > 100 µM.

Regarding `C=Cc1cccc2c1N(C)Cc1cc3c(cc1-2)OCO3`, the IC50 was 11.3 µM.

In turn, `CCCCN1Cc2cc3c(cc2-c2cccc(CC)c21)OCO3` registered an IC50 of 7.4 µM.

Compound `CC(=O)O[C@H]1[C@H]2c3cc4c(cc3CN3CCC(=C[C@@H]1O)[C@H]23)OCO4` showed an IC50 of 0.9 µM.

`C=Cc1cccc2c1N(CC)Cc1cc3c(cc1-2)OCO3` yielded an IC50 of 86 µM.

Consider `CC(=O)O[C@H]1[C@H]2c3cc4c(cc3CN3CCC(=C[C@@H]1OC(C)=O)[C@H]23)OCO4`, for which the IC50 is 0.26 µM.

Take `CCC(=O)O[C@H]1[C@H]2c3cc4c(cc3CN3CCC(=C[C@@H]1OC(=O)CC)[C@H]23)OCO4`: the midpoint of inhibition, the IC50, lay at 2.7 µM.

Consider `CC(=O)O[C@H]1[C@H]2c3cc4c(cc3CN3CC[C@@H](C[C@@H]1OC(C)=O)[C@H]23)OCO4`, for which half-maximal inhibition (IC50) required 34.8 µM.

For `O=C1C=C2CCN3Cc4cc5c(cc4[C@H]([C@@H]1O)[C@@H]23)OCO5`, it took 14.7 µM to reach half-maximal inhibition (IC50).

`O[C@H]1[C@H]2c3cc4c(cc3CN3CCC(=C[C@@H]1O)[C@H]23)OCO4` [LYCORINE] registered an IC50 of 0.13 µM.

The record behind these values is ChEMBL document CHEMBL1177653, “Synthesis and antiplasmodial activity of lycorine derivatives” (Bioorg Med Chem, 2010).
